Laboratory results published in patent publication US11896423B2, “Time-varying quantification of capacitive and resistive arterial blood flow” (Board of Regents of the University of Nebraska, priority 2018, dated 2024).

System: renal sympathetic tone
Assay: Renal pressure-flow measurements in anesthetized swine before and after renal sympatholysis with intrathecal ropivacaine
Format: in vivo, pigs
Text: METHODS: Referring to FIG. 4, nine adult male New Zealand White rabbits were implanted with arterial pressure telemeters and bilateral renal flow probes. One kidney of each rabbit was surgically denervated. The rabbits were acclimated to a procedure room and, after a two-week recovery, measurements of arterial pressure and bilateral renal blood flow were obtained in the conscious state. Referring to FIG. 5, ten pigs were induced and then anesthesia was maintained via ketamine-midazolam IV infusion. T9/T10 intrathecal and arterial access were established. A Volcano ComboWire® was placed in the renal artery to measure intravascular pressure and flow velocity. Intrathecal ropivacaine was given to reduce renal sympathetic tone, and renal pressure-flow measurements were repeated.
Referring to FIG. 6, Arterial pressure and renal blood flow measurements were used to estimate resistive flow as a function of time, which was in turn used to derive the renal pressure-flow time-varying transfer function (TVTF). TVTF analysis focused on known sympathetic vaso-motor frequencies (0.2-0.75 Hz in rabbits, 0.03-0.1 Hz in pigs). Control of renal vascular resistance in different states of innervation was characterized by occurrence plots of admittance gain and phase shift of the TVTF. Admittance gain reflects the normalized magnitude of oscillations in renal blood flow; phase shift reflects the timing of renal blood flow oscillations relative to arterial pressure.
Table 2 (below) illustrates the mean hemodynamics of the pigs before (“Baseline”) and after renal sympatholysis with intrathecal ropivacaine (“Ropi”).

In the case of CCCN1CCCC[C@H]1C(=O)Nc1c(C)cccc1C [Ropi, ropivacaine], the “Renal Blood Flow Velocity” value (mean hemodynamics of anesthetized pigs after renal sympatholysis with intrathecal ropivacaine (T9/T10), baseline 24 +/− 3) is reported as 28 ± 5 cm/s, the “Arterial Pressure” value (mean hemodynamics of anesthetized pigs after renal sympatholysis with intrathecal ropivacaine (T9/T10), baseline 83 +/− 4) is reported as 72 +/− 7 mmHg and the “Heart Rate” value (mean hemodynamics of anesthetized pigs after renal sympatholysis with intrathecal ropivacaine (T9/T10), baseline 85 +/− 8) is reported as 71 +/− 5 bpm. For the same compound, the “Phase asynchrony of the renal pressure-flow time-varying transfer function at known sympathetic vasomotor frequencies” value (pigs, state PRIOR to intrathecal ropivacaine compared with after (0.03-0.1 Hz)) was “more phase asynchrony”.
